Test results taken from patent publication US10030027B2, “Soluble guanylate cyclase stimulators” (MERCK SHARP & DOHME CORP., priority 2015, dated 2018).

Experiments:
sGC α1/β1 heterodimer = sGC α1/β1 heterodimer (Homo sapiens (Human), UniProt Q02108+Q02153); experiment: Cell-based sGC functional assay (cyclic GMP assay for sGC activator: CASA assay); details: CHO-K1/sGC cells; for Emax: CHO-K1, activity expressed as percentage of compound A (standard), read-out: % Activation; for EC50: inflection point, 4P fit, read-out: IP
How it was run: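 CHO-K1 cells stably expressing human sGC α1/β1 were pre-incubated 30 min at 25° C with or without 1 μM DETA-NO, then exposed to compound for 1 hr at 37° C with 0.5 mM IBMX and 2.5% DMSO final. Intracellular cGMP was measured by HTRF, expressed as % of reference sGC-HDA maximum; inflection point and maximum fold induction came from 4-parameter fits.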

[1] = target: human recombinant sGC enzyme (Homo sapiens (Human), UniProt Q02108+Q02153); experiment: Size Exclusion Chromatography (SEC) competition binding assay using [3H] Ex-77B as the radioligand; details: [3H] Ex-77B radioligand, 24 hours at 37° C.
How it was run: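 Recombinant human sGC binding measured by competition against tritiated Ex-77B radioligand, with non-specific binding defined by 1 μM unlabeled Ex-77B.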

Emax (sGC α1/β1 heterodimer) [%] | EC50 (sGC α1/β1 heterodimer) [nM] | Ki [1] [nM] | Compound
96 | 762 | 0.484 | CCCCn1nc(-c2nc(N)c3c(n2)NC(=O)C3(C)c2ccc(CC(C)(C)C(=O)O)cc2)c2ccc(Cl)cc21 (stereo not drawn) [Example 37B, 3-{4-[4-amino-2-(1-butyl-6-chloro-1H-indazol-3-yl)-5-methyl-6-oxo-6,7-dihydro-5H-pyrrolo[2,3-d]pyrimidin-5-yl]phenyl}-2,2-dimethylpropanoic acid]
135 | 265 | 0.947 | CC1(c2nc(C[C@H](N)C(=O)O)cs2)C(=O)Nc2nc(-c3nn(Cc4ccccc4F)c4cc(Cl)ccc34)nc(N)c21 (stereo partly drawn) [Example 234B, (S)-3-(2-{4-Amino-2-[6-chloro-1-(2-fluorobenzyl)-1H-indazol-3-yl]-5-methyl-6-oxo-6,7-dihydro-5H-pyrrolo[2,3-d]pyrimidin-5-yl}-1,3-thiazol-4-yl)-D-alanine]
91.2 | 39 | 0.151 | CC(C)(Cc1csc([C@]2(C)C(=O)Nc3nc(-c4nn(CC5CCCCC5)c5cc(F)ccc45)nc(N)c32)n1)C(=O)O [Example 201A, (S)-3-(2-{4-amino-2-[1-(cyclohexyl-methyl)-6-fluoro-1H-indazol-3-yl]-5-methyl-6-oxo-6,7-dihydro-5H-pyrrolo[2,3-d]pyrimidin-5-yl}-1,3-thiazol-4-yl)-2,2-dimethyl-propanoic acid]
111 | 88 | 0.076 | CC(C)(Cc1csc([C@]2(C)C(=O)Nc3nc(-c4nn(Cc5c(F)cccc5F)c5cc(Cl)ccc45)nc(N)c32)n1)C(=O)O [Example 183A, (S)-3-(2-{4-amino-2-[6-chloro-1-(2,6-difluorobenzyl)-1H-indazol-3-yl]-5-methyl-6-oxo-6,7-dihydro-5H-pyrrolo[2,3-d]pyrimidin-5-yl}-1,3-thiazol-4-yl)-2,2-dimethyl-propanoic acid]
98.5 | 51 | 0.117 | CC1(c2ccc(CCC(=O)O)cn2)C(=O)Nc2nc(-c3nn(Cc4ccccc4F)c4cc(Cl)ccc34)nc(N)c21 (stereo not drawn) [Example 129A, 3-(6-{4-amino-2-[6-chloro-1-(2-fluorobenzyl)-1H-indazol-3-yl]-5-methyl-6-oxo-6,7-dihydro-5H-pyrrolo[2,3-d]pyrimidin-5-yl}pyridin-3-yl)propanoic acid]
90.3 | 159 | 0.104 | CC1(c2cccc(C(=O)O)c2)C(=O)Nc2nc(-c3nn(Cc4ccccc4F)c4cc(Cl)ccc34)nc(N)c21 (stereo not drawn) [Example 169B, 3-{4-amino-2-[6-chloro-1-(2-fluorobenzyl)-1H-indazol-3-yl]-5-methyl-6-oxo-6,7-dihydro-5H-pyrrolo[2,3-d]pyrimidin-5-yl} benzoic acid]
94.8 | 403 | 0.121 | CC(C)(Cc1csc([C@]2(C)C(=O)Nc3nc(-c4nn(Cc5ccccc5F)c5ncccc45)nc(N)c32)n1)c1nn[nH]n1 [Example 241A, (S)-4-amino-2-[1-(2-fluoro-benzyl)-1H-pyrazolo[3,4-b]pyridin-3-yl]-5-methyl-5-{4-[2-methyl-2-(2H-tetrazol-5-yl)propyl]-1,3-thiazol-2-yl}-5,7-dihydro-6H-pyrrolo[2,3-d] pyrimidin-6-one]
118 | 120 | 0.031 | CC(C)(Cc1coc(C2(C)C(=O)Nc3nc(-c4nn(CC5CCCCC5)c5ncccc45)nc(N)c32)n1)C(=O)O (stereo not drawn) [Example 152A, 3-(2-{4-amino-2-[1-(cyclohexyl-methyl)-1H-pyrazolo[3,4-b]pyridin-3-yl]-5-methyl-6-oxo-6,7-dihydro-5H-pyrrolo[2,3-d]pyrimidin-5-yl}-1,3-oxazol-4-yl)-2,2-dimethyl-propanoic acid]
99.5 | 609 | 0.095 | CC(C)(Cc1csc([C@]2(C)C(=O)Nc3nc(-c4nn(Cc5ccccc5F)c5cc(Cl)ccc45)nc(N)c32)n1)c1nn[nH]n1 [Example 238A, (S)-4-amino-2-[6-chloro-1-(2-fluorobenzyl)-1H-indazol-3-yl]-5-methyl-5-{4-[2-methyl-2-(2H-tetrazol-5-yl)propyl]-1,3-thiazol-2-yl}-5,7-dihydro-6H-pyrrolo[2,3-d] pyrimidin-6-one]
63.5 | 74 | 0.146 | C[C@@]1(c2ccc(CCC(=O)O)cc2)C(=O)Nc2nc(-c3nn(CC4CCCC4)c4ccccc34)nc(N)c21 [Example 227B, (S)-3-(4-{4-amino-2-[1-(cyclopentyl-methyl)-1H-indazol-3-yl]-5-methyl-6-oxo-6,7-dihydro-5H-pyrrolo[2,3-d]pyrimidin-5-yl}phenyl)propanoic acid]
89.2 | 69 | 0.052 | CC(C)(CCc1coc(C2(C)C(=O)Nc3nc(-c4nn(Cc5ccccc5F)c5cc(F)ccc45)nc(N)c32)n1)C(=O)O (stereo not drawn) [Example 193B, 4-(2-{4-amino-2-[6-fluoro-1-(2-fluorobenzyl)-1H-indazol-3-yl]-5-methyl-6-oxo-6,7-dihydro-5H-pyrrolo[2,3-d]pyrimidin-5-yl}-1,3-oxazol-4-yl)-2,2-dimethyl-butanoic acid]
95 | 2500 | 0.92 | C[C@@]1(c2ccc(CCC(=O)O)cc2)C(=O)Nc2nc(-c3nn(CCCC(F)(F)F)c4ncc(F)cc34)nc(N)c21 [Example 18B, (S)-3-(4-{4-amino-2-[5-fluoro-1-(4,4,4-trifluorobutyl)-1H-pyrazolo[3,4-b]pyridin-3-yl]-5-methyl-6-oxo-6,7-dihydro-5H-pyrrolo[2,3-d]pyrimidin-5-yl}phenyl)propanoic acid]
106 | 116 | 0.048 | CC(C)(Cc1coc(C2(C)C(=O)Nc3nc(-c4nn(Cc5ccccc5F)c5ccccc45)nc(N)c32)n1)c1nn[nH]n1 (stereo not drawn) [Example 248B, 4-Amino-2-[1-(2-fluorobenzyl)-1H-indazol-3-yl]-5-methyl-5-{4-[2-methyl-2-(2H-tetrazol-5-yl)propyl]oxazol-2-yl}-5,7-dihydro-6H-pyrrolo[2,3-d]pyrimidin-6-one]
128 | 73 | 0.041 | CC(C)(Cc1csc([C@]2(C)C(=O)Nc3nc(-c4nn(Cc5cccc(F)c5)c5cc(F)ccc45)nc(N)c32)n1)C(=O)O [Example 194A, (S)-3-(2-{4-amino-2-[6-fluoro-1-(3-fluorobenzyl)-1H-indazol-3-yl]-5-methyl-6-oxo-6,7-dihydro-5H-pyrrolo[2,3-d]pyrimidin-5-yl}-1,3-thiazol-4-yl)-2,2-dimethyl-propanoic acid]
118 | 262 | 0.144 | CC(C)(Cc1csc([C@]2(C)C(=O)Nc3nc(-c4nn(Cc5ccc(F)cc5F)c5cc(Cl)ccc45)nc(N)c32)n1)C(=O)O [Example 179A, (S)-3-(2-{4-amino-2-[6-chloro-1-(2,4-difluorobenzyl)-1H-indazol-3-yl]-5-methyl-6-oxo-6,7-dihydro-5H-pyrrolo[2,3-d]pyrimidin-5-yl}-1,3-thiazol-4-yl)-2,2-dimethyl-propanoic acid]
84 | 1050 | 0.951 | CC(C)(Cc1ccc(C2(C)C(=O)Nc3nc(-c4nn(CCCC(F)(F)F)c5cc(Cl)ccc45)nc(N)c32)cc1)C(=O)O (stereo not drawn) [Example 42B, 3-(4-{4-amino-2-[6-chloro-1-(4,4,4-trifluorobutyl)-1H-indazol-3-yl]-5-methyl-6-oxo-6,7-dihydro-5H-pyrrolo[2,3-d]pyrimidin-5-yl}phenyl)-2,2-dimethylpropanoic acid]
77 | 3780 | 0.936 | CC(Cc1ccc(C2(C)C(=O)Nc3nc(-c4nn(CCCC(F)(F)F)c5ncccc45)nc(N)c32)cc1)C(=O)O (stereo not drawn) [Example 17AB, 3-(4-{4-amino-5-methyl-6-oxo-2-[1-(4,4,4-trifluorobutyl)-1H-pyrazolo[3,4-b]pyridin-3-yl]-6,7-dihydro-5H-pyrrolo[2,3-d]pyrimidin-5-yl}phenyl)-2-methylpropanoic acid]
97.7 | 230 | 0.092 | CC(C)(Cc1coc(C2(C)C(=O)Nc3nc(-c4nn(Cc5ncccc5F)c5cc(Cl)ccc45)nc(N)c32)n1)C(=O)O (stereo not drawn) [Example 184A, 3-{2-[4-amino-2-{6-chloro-1-[(3-fluoropyridin-2-yl)methyl]-1H-indazol-3-yl}-5-methyl-6-oxo-6,7-dihydro-5H-pyrrolo[2,3-d]pyrimidin-5-yl]-1,3-oxazol-4-yl}-2,2-dimethyl-propanoic acid]
93.3 | 2730 | 0.063 | CC1(c2ccc(Cc3nn[nH]n3)cc2)C(=O)Nc2nc(-c3nn(Cc4ccccc4F)c4cc(Cl)ccc34)nc(N)c21 (stereo not drawn) [Example 244A, 5-{4-[(2H-tetrazol-5-yl)methyl]phenyl}-4-amino-2-[6-chloro-2-(2-fluorobenzyl)-1H-indazol-3-yl]-5-methyl-5,7-dihydro-6H-pyrrolo[2,3-d] pyrimidin-6-one]
101 | 453 | 0.253 | CC(C)(C)CCn1nc(-c2nc(N)c3c(n2)NC(=O)C3(C)c2nc(CC(C)(C)C(=O)O)co2)c2ccc(Cl)cc21 (stereo not drawn) [Example 208A, 3-(2-{4-amino-2-[6-chloro-1-(3,3-dimethylbutyl)-1H-indazol-3-yl]-5-methyl-6-oxo-6,7-dihydro-5H-pyrrolo[2,3-d]pyrimidin-5-yl}-1,3-oxazol-4-yl)-2,2-dimethyl-propanoic acid]
